Source: patent US10064909B2, “Compositions and methods for chronic use of a weight-gaining compound” (priority 2015, dated 2018)
Values joined by “and” are separate entries in the source; they are usually repeats but may differ in a detail not shown here. Equal entries are not always repeated.

Legend:
[1] = tested on: IGF-1; test: One-year dog safety study: IGF-1 plasma levels; assay type: in vivo, Beagle dogs; conditions: dogs, following treatment, sustained over time to Day 351
Procedure: This study evaluated the safety of capromorelin in dogs. Thirty-two Beagle dogs were randomly assigned to four groups (n=4/sex/group) and received 0 mg/kg, 0.39 mg/kg, 9.2 mg/kg, or 52.4 mg/kg capromorelin (with the dose calculated per the tartrate salt) once daily by oral gavage for 12 consecutive months. Safety parameters were evaluated including clinical signs, food consumption, bodyweight, clinical pathology, urinalysis, ophthalmology, electrocardiogram and vital signs. Capromorelin, GH and IGF-1 were measured in plasma samples collected at various time points during the study. At the end of the dosing period, dogs were humanely euthanized and necropsied. Selected organs were weighed and tissue samples collected and processed for microscopic examination.

[2] = Safety of daily capromorelin in cats for 91 days at an oral dose of 6 mg/kg; assay type: in vivo
Procedure: This controlled study included two treatment groups with 4 adult cats receiving placebo (Group 1) and 8 adult cats receiving capromorelin (Formulation #9, as described above) (Group 2) for 91 consecutive days. All cats were offered food daily for a 6-hour period following an 11-day acclimation phase. All cats were weighed on Days −11, −1, 1, 14, 30, 59, 75, and 91. On Days 1 through 91, animals were orally administered capromorelin once daily via syringe at dose levels of 0 or 6 mg/kg. At one hour post-dose, all cats were offered food for a 6-hour period. Variables of interest included weight gain/loss, food consumption, clinical pathology, and serum analysis of IGF-1 and GH.
On Days 1, 30, 59, and 91, blood samples were collected prior to daily dose administration and at 8 hours post-dose and processed to serum for analysis of IGF-1 and GH levels. Hematology parameters included white blood count (WBC), hemoglobin (HgB), red blood count (RBC), platelet count (PLT), platelet morphology, hematocrit (HCT), mean corpuscular volume (MCV), mean corpuscular hemoglobin (MCH), WBC differential, RBC and WBC morphology, mean corpuscular hemoglobin concentration (MCHC), reticulocytes, and blood smear. Serum chemistry parameters measured included albumin (ALB), creatine kinase (CK), albumin/globulin ratio (A\G), globulin (GLOB), alkaline phosphatase (ALP), glucose (GLU), fructosamine, alanine aminotransferase (ALT), blood urea nitrogen (BUN), phosphorus (PHOS), calcium (Ca), potassium (K), chloride (Cl), sodium (Na), cholesterol (CHOL), total protein (TP), creatinine (CRE), total bilirubin (TBIL), BUN/creatinine ratio, and sodium/potassium ratio.
Urine samples were collected via cystocentesis and/or by collection in pans/trays from all cats for urinalysis. Before blood collection, all animals were fasted at least 8 hours. Urinalysis parameters measured included specific gravity (SG), pH (PH), color (COL), clarity (CLAR), blood (BLO), protein (UPRO), bilirubin (UBIL), glucose (UGLU), ketones (KET), and the microscopic examination of the sediments for RBC/hpf, WBC/hpf, bacteria (BACT), epithelial cells, mucus, casts, and crystals.

[3] = Cat dose titration laboratory study (21 days): food consumption and bodyweight; assay type: in vivo; conditions: cats; for Mean % Change (±SD) in Food Consumption Over 21 Days: Day 1-21 vs Days -3 to -1, listed as AT-002, L-tartrate; for Mean % Change (±SD) in Bodyweight Over 21 Days: Day 1 to Day 22
Procedure: This study tested the effectiveness of an oral formulation of AT-002 in laboratory cats and to select a dose that would cause increased food intake and weight gain. This study investigated the effects of a capromorelin oral solution in cats dosed at 1 mg/kg, 2 mg/kg or 3 mg/kg compared to placebo (n=8/group) for 21 days. Food consumption was measured each day from Day −10 through Day 21. For each cat, baseline food consumption was calculated as the average of Days −3, −2 and −1. The percent change from baseline to treatment period was calculated as 100× (treatment period minus baseline)/baseline. Bodyweight was measured on Day 1, Day 8, Day 15 and Day 22. Baseline bodyweight was defined as the value collected on Day 1 (prior to treatment).

[4] = tested on: IGF-1; test: Pilot clinical field study: IGF-1 serum levels; assay type: in vivo, cats
Procedure: The key variable for the determination of effectiveness was bodyweight. Other effectiveness variables measured included body condition score, muscle condition score, quality of life assessments (unvalidated) and owner appetite assessments (unvalidated). Safety was assessed by physical examinations, clinical pathology testing (hematology and serum chemistry), urinalysis, serum IGF-1 levels and adverse event monitoring.

For `CN1N=C2CCN(C(=O)[C@@H](COCc3ccccc3)NC(=O)C(C)(C)N)C[C@@]2(Cc2ccccc2)C1=O.O=C(O)C(O)C(O)C(=O)O` [capromorelin, N-[(2R)-1-[(3aR)-2-methyl-3-oxo-3a-(phenylmethyl)-6,7-dihydro-4H-pyrazolo[4,3-c]pyridin-5-yl]-1-oxo-3-(phenylmethoxy)propan-2-yl]-2-amino-2-methylpropanamide L-tartrate], the IGF-1 plasma levels [1] was “increased”, the “resolution of post-dose clinical observations” value ([2]; 6 mg/kg) was “usually resolved within five minutes” and the “mean rate of bodyweight change” value ([2]; 6 mg/kg oral once daily, 91 days) was 0.0086. The “mean bodyweight change from baseline (Day 1)” value (“mean bodyweight change” below) ([2]; 6 mg/kg oral once daily, Day 14) was 0.26 kg, the “mean bodyweight change” value ([2]; 6 mg/kg oral once daily, Day 30) was 0.46 kg and the “mean bodyweight change” value ([2]; 6 mg/kg oral once daily, Day 59) was 0.64 kg. The “mean bodyweight change” value ([2]; 6 mg/kg oral once daily, Day 75) was 0.73 kg, the “mean bodyweight change” value ([2]; 6 mg/kg oral once daily, Day 91) was 0.80 kg and the “food consumption, mean change from baseline” value ([2]; 6 mg/kg oral once daily, baseline average of Days -3 through -1) was 14.95 grams. The “mean rate of bodyweight change, factor vs placebo” value ([2]; 6 mg/kg, 0.0086 vs 0.0010 for placebo) was 8.6, the chronic hyperglycemia ([2]; 6 mg/kg, 91 days) was “no chronic hyperglycemia” and the “food consumption, mean rate of change” value ([2]; 6 mg/kg, a rate of one = one more gram of food consumed each day) was 1.2396. For the same molecule, the creatinine levels ([2]; 6 mg/kg, acclimation to Day 91, reference range 0.6 to 2.4 mg/dL) was “within the normal reference range”, the BUN levels ([2]; 6 mg/kg, acclimation to Day 91, reference range 14 to 36 mg/dL) was “within the normal reference range” and the serum glucose levels ([2]; 6 mg/kg, compared to the placebo group) was “increased”. The serum fructosamine ([2]; 6 mg/kg, reference range 191 to 349 μmol/L) was “No fructosamine values exceeded the normal reference range”, the “most common clinical observations” value ([2]; 6 mg/kg, seen immediately post-dose) was “hypersalivation (ptyalism), lip smacking, emesis, and head shaking” and the “Mean % Change (±SD) in Food Consumption Over 21 Days” value ([3]; 1 mg/kg, 1 mg/kg) was 25.3% and 25.32 ± 16.70%. For the same molecule, the “Mean % Change (±SD) in Bodyweight Over 21 Days” value ([3]; 1 mg/kg) was 5.41 ± 4.11%, the “Mean % Change (±SD) in Food Consumption Over 21 Days” value ([3]; 2 mg/kg, 2 mg/kg) was 45.7% and 45.67 ± 24.39% and the “Mean % Change (±SD) in Bodyweight Over 21 Days” value ([3]; 2 mg/kg) was 6.61 ± 5.05%. The “Mean % Change (±SD) in Food Consumption Over 21 Days” value ([3]; 3 mg/kg, 3 mg/kg) was 29.6% and 29.59 ± 13.65%, the “Mean % Change (±SD) in Bodyweight Over 21 Days” value ([3]; 3 mg/kg) was 3.92 ± 5.15% and the “IGF-1 Serum Levels, Mean Levels (SEM)” value ([4]; 2 mg/kg once daily, Day 30) was 855.60 ± 72.74 ng/mL. The “IGF-1 Serum Levels, Change over baseline (Day 0)” value (“IGF-1 Serum Levels, Change” below) ([4]; 2 mg/kg once daily, Day 30, L-tartrate) was 274.60 ± 49.06 ng/mL, the “IGF-1 Serum Levels, Change” value ([4]; 2 mg/kg once daily, Day 60) was 195.64 ± 40.70 ng/mL and the “IGF-1 Serum Levels, Mean Levels (SEM)” value ([4]; 2 mg/kg once daily, Day 60) was 752.55 ± 56.89 ng/mL. The “IGF-1 Serum Levels, Change” value ([4]; 2 mg/kg once daily, Day 90) was 163.82 ± 52.74 ng/mL, the “IGF-1 Serum Levels, Mean Levels (SEM)” value ([4]; 2 mg/kg once daily, Day 90) was 720.73 ± 65.70 ng/mL and the “IGF-1 Serum Levels, Mean Levels (SEM)” value ([4]; capromorelin group, Day 0 (baseline)) was 556.91 ± 64.30 ng/mL.
